This is an account of results in patent publication US20120020876A1, “HEDGEHOG PATHWAY INHIBITORS” (priority 2009, published 2012).

Data set [1] has as its system transplanted pancreatic tumors. Nature of the data set: Growth of subcutaneous and orthotopic transplanted pancreatic tumors. The settings on record: transplantation models of human or mouse origin; gemcitabine Q3Dx4, 12 days. In kind it is in vivo. On the procedure:
The human pancreatic cancer cell line AsPc1 was cultured according to instructions. Mouse pancreatic cancer cell lines […], […] and DT8082 were isolated from tumors arising in KPC mice using a modification of the protocol described by Schreiber et al., Gastroenterology (20004) 127:250. Briefly, a 3 mm^3 fragment of PDA was excised, washed in 10 mL of cold PBS, and then finely diced with sterile razors. Cells were incubated in 10 mL of collagenase solution at 37° C. for 30-45 minutes with mixing (1 mg/mL collagenase V in DMEM/F12). Cells were spun (100 rpm, 5 min.) and resuspended in 0.05% Trypsin/EDTA for 5 min. at 37° C., and then quenched with DMEM supplemented with 10% fetal calf serum and 96 μM CaCl2. Cells were washed 3 times with DMEM/F12 medium and plated in a 6-well Biocoat dish (Becton Dickenson) in the ductal cell medium. After 3-4 passages, cells were transferred to standard plastic tissue culture dishes and grown in DMEM+10% FCS. 1×10^6 cells suspended in 100 μL of PBS were injected subcutaneously into the flanks of nude mice (xenografts) or into immunocompetent mice (syngeneic). For syngeneic models, recipient mice were descended from mice used to generate the KPC PDA cell lines. […] Long (L) and short (S) axes of each tumor were measured with calipers (for subcutaneous tumors) or ultrasound (for orthotopic tumors). Tumor volume (V) was calculated: V=(L×S^2)/2. […]

In data set [2] the test system is KPC tumors. Nature of the data set: Histology (H&E) of treated KPC tumors. In kind it is in vivo, mouse. As to conditions: KPC tumors after 8-12 days of treatment.
Data set [3] relates to pancreatic ductal adenocarcinoma. As to conditions: cited from earlier work.
A short description of data set [4]: Determination of dFdCTP in tissues by HPLC. The settings on record: 50 or 100 mg/kg gemcitabine i.p., 4 h. In kind it is in vivo, mouse. On the procedure: Tissues were rapidly dissected and snap frozen in liquid nitrogen. Specimens were maintained at −80° C. until nucleotide extraction. Specimens were ground under liquid nitrogen with a mortar and pestle. The powdered contents were suspended in 0.4N perchloric acid and sonicated in an ice bath. Solids were removed by centrifugation, the pellet was washed with perchloric acid, and the supernatants were combined. Following neutralization with KOH and removal of KClO4 by centrifugation, a portion of the supernatant was analyzed by high-pressure liquid chromatography. The amount of gemcitabine triphosphate was normalized to the ATP level determined in the same sample analysis. Samples with inadequate concentrations of ATP were excluded from analysis.

Data set [5] in a line: Gemcitabine (dFdC) in blood of normal mice by HPLC. In kind it is in vivo, mouse.
Data set [6] has as its system KPC tumors. Nature of the data set: Proliferation of KPC tumors (phospho-histone H3 immunohistochemistry). In kind it is in vivo, mouse. As to conditions: 4 days or 8-12 days of treatment. How it is done:
(§1) Tissues were fixed in 10% formalin solution for 24 hours and transferred to 70% ethanol. Tissues were paraffin embedded, sectioned and rehydrated. For CD31 IHC, sections were unmasked in 10 mM EDTA, pH 8.0 in a pressure cooker. For all other antibodies, sections were unmasked in 10 mM citric acid in a pressure cooker. Endogenous peroxidases were quenched in 3% H2O2/PBS for 20 minutes. Remaining steps were carried out with Vectastain ABC kits appropriate to the species of primary antibody (Vector Labs, Burlingame, Calif.) with the following modification: blocking serum was supplemented with Protein Blocking Agent (Immunotech/BeckmanCoulter, Fullerton, Calif.) diluted 1:50. Antigens were developed with DAB Peroxidase Substrate (Vector Labs). The following antibody dilutions were used: Phospho-Histone H3, 1:100 (#9701, Cell Signaling Technology); Cleaved Caspase 3, 1:100 (#9661, Cell Signaling Technology); CD31, 1:75 (SC-1506). Slides were counterstained with hematoxylin.

Data set [7] has as its system KPC pancreatic tumors. As to the kind of experiment: Monitoring of KPC pancreatic tumor volume by 3D high resolution ultrasonography. It is filed as in vivo, mouse. The settings on record: gemcitabine 100 mg/kg twice weekly, Compound A 40 ug/kg/day, or both. An excerpt: For survival studies, mice were enrolled following the detection of 5-10 mm diameter tumor by ultrasound. Tumors were quantified by 3D ultrasound twice weekly until endpoint. High resolution ultrasound (US) imaging of normal and diseased mouse pancreas using the Vevo 770 System with a 35 MHz RMV scanhead (Visual Sonics, Inc.). 3D images were produced using the 3D motor arm to collect serial images at 0.25 mm intervals through the thickness of the tumor. Tumors were outlined on each 2D image and reconstructed to quantify the 3D volume using the integrated Vevo 770 software package.

In data set [8] the test system is pancreatic tumors in KPC mice. Nature of the data set: Survival study of tumor-bearing KPC mice. It is filed as in vivo, mouse. The settings on record: KPC mice enrolled with 5-10 mm tumors. How it is done:
vehicles: 20 μL/g 0.85% NaCl+8 μL/g 5% HPBCD;
Compound A: 40 mg/kg Compound A+20 μL/g 0.85% NaCl;
For survival studies, mice were enrolled following the detection of 5-10 mm diameter tumor by ultrasound. Tumors were quantified by 3D ultrasound twice weekly until endpoint.

Data set [9] has as its system KPC tumors. As to the kind of experiment: Apoptosis in KPC tumors (Cleaved Caspase 3 immunohistochemistry). In kind it is in vivo, mouse. On the procedure:
as §1

Data set [10] relates to transplanted pancreatic tumors. Nature of the data set: Proliferation of transplanted tumors (phospho-histone H3 immunohistochemistry). It is filed as in vivo, mouse. The settings on record: gemcitabine Q3Dx4. How it is done:
(§2) 1×10^6 cells suspended in 100 μL of PBS were injected subcutaneously into the flanks of nude mice (xenografts) or into immunocompetent mice (syngeneic). For syngeneic models, recipient mice were descended from mice used to generate the KPC PDA cell lines. Orthotopic tumors with MiaPaca2 were generated as previously described (Niedergethmann et al., Br J Cancer 97, 1432 (Nov. 19, 2007)). Long (L) and short (S) axes of each tumor were measured with calipers (for subcutaneous tumors) or ultrasound (for orthotopic tumors). Tumor volume (V) was calculated: V=(L×S^2)/2. Tumor volumes were normalized relative to the volume at the start of drug treatment for subcutaneous tumors. […] Tumor images were acquired using a pediatric ultrasound machine. This machine was not equipped for 3D reconstruction, so the same formula V=(L×S^2)/2 was used to estimate the tumor volumes and changes. […] When appropriate, a fifth dose was given on the final day four hours prior to necropsy for pharmacological analyses.
(§3) Tissues were fixed in 10% formalin solution for 24 hours and transferred to 70% ethanol. Tissues were paraffin embedded, sectioned and rehydrated. For CD31 IHC, sections were unmasked in 10 mM EDTA, pH 8.0 in a pressure cooker. For all other antibodies, sections were unmasked in 10 mM citric acid in a pressure cooker. Endogenous peroxidases were quenched in 3% H2O2/PBS for 20 minutes. […]

The nature of data set [11]: 19F NMR of fluorinated gemcitabine metabolites in tissue. It is filed as in vivo, mouse. The settings on record: six hours after gemcitabine dosage; pilot experiments. How it is done:
Mice were treated with indicated regiments for 12 days. […] Tissues were rapidly dissected and snap frozen in liquid nitrogen. Tissue specimens were maintained at −80° C. until subjected to nucleotide extraction. Samples were homogenized in a Qiagen TissueLyser with a 5 mm ball bearing for 2×6 minutes at 25 KHz, in the presence of 4 volumes of ice-cold acetonitrile (μL acetonitrile=4×[…] of tissue). An equal volume of water was added and then the sample was spun at 14,000 rpm for 10 minutes at 4° C. Supernatant was freeze dried, resuspended in 600 μL of D2O and transferred to a 5 mm standard NMR tube (Wilmad) for ^19F NMR analysis on a Bruker 600 MHZ (14.1T) Avance NMR spectrometer using a QNP probe. Acquisition parameters included a 1D pulse sequence of ^19F observation and inverse-gated ^1H decoupling, spectral sweep width of 177 ppm (100000 Hz), 4096 scans and 1.65 sec of repetition time. Total acquisition time for each sample was about 1 hr 55 min. Trichloro-fluoro-methane was used for ^19F NMR chemical shift calibrations. A broad hump observed in the baseline of ^19F NMR spectra was removed by application of Linear-prediction (LP) back projection to the time domain data by using 2000 (number of LP) coefficients and 128 back-prediction points prior to Fourier transformation and phase correction. […]

Data set [12] has as its system transplanted pancreatic tumors. Nature of the data set: Apoptosis in transplanted tumors (cleaved caspase 3 immunohistochemistry). In kind it is in vivo, mouse. The settings on record: gemcitabine Q3Dx4. How it is done:
as §2, §3

Entries after “also recorded” stand apart in the source; their conditions may differ.

Consider `Nc1ccn([C@@H]2O[C@H](CO)[C@@H](O)C2(F)F)c(=O)n1` [gemcitabine, 2′,2′-difluorodeoxycytidine], for which the “tumor growth of transplanted tumors” value in data set [1] is on record as “substantial inhibition of tumor growth”. The “tumor stroma / histological pattern” value in data set [2] is “dense stromal matrix”. Besides, the extension of survival entry in data set [3] (pancreatic ductal adenocarcinoma, standard-of-care therapy) is “a few weeks”. Besides, the “patients with objective radiographic response at the primary tumor site” value in data set [3] (patients, Tempero et al. 2003) is given as 5-10%. For the same molecule, in [4], the “dFdCTP in KPC tumors” value is recorded as “absent”; the “dFdCTP in transplanted tumor tissues and control tissues” value is “present”. Further, the “half-life of gemcitabine in circulating blood” value in [5] is recorded as “short half-life”. Also, the “proliferation of KPC tumors” value in data set [6] is given as “significantly diminished; also recorded: decreased”. Further, in data set [7], the “objective (ultrasonographic) response, responding mice/treated mice” value is given as 2/10. In addition, the “effect on survival of KPC mice” value in data set [8] was “Neither gemcitabine nor Compound A treatment had an effect on the survival”. Further, the “apoptosis in KPC tumors” value in [9] was “unchanged in most KPC tumors”. The “proliferative rate of transplanted tumors” value in data set [10] was “significantly lower proliferative rates”. Further, the “19F signals in PDA and control tissues” value in [11] is reported as “absent”. The “apoptosis in transplanted tumors” value in [12] is “no significant changes in apoptosis”.
